The text below walks through data of patent US20240158495A1, “Antibody Agents Directed Against Lymphocyte Activation Gene-3 (LAG-3) and Uses Thereof” (Tesaro, Inc., priority 2017, published 2024).

In test [1] the target is T1, Human LAG-3 (Homo sapiens, UniProt P18627).
T1 construct: either recombinant soluble or cell-surface-expressed human and cynomolgus monkey (cyno) LAG-3
T1 sequence (P18627 23-450 limits assumed): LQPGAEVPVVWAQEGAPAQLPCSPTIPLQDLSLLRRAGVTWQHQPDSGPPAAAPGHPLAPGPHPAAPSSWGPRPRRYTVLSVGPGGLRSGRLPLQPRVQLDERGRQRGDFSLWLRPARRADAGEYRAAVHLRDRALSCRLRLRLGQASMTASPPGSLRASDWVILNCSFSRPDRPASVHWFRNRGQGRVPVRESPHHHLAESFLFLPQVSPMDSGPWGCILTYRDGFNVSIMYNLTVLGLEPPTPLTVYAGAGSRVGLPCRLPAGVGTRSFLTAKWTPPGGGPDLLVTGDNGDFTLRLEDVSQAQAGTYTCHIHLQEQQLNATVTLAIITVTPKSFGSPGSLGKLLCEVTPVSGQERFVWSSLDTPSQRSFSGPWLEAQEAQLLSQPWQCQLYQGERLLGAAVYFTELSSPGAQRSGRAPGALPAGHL
Kind of test: SPR binding to recombinant soluble human LAG-3. In general terms: SPR reads the build-up and loss of mass on a sensor chip optically.

Test [2] concerns Cyno LAG-3. As to the kind of experiment: SPR binding to recombinant soluble cyno LAG-3. Further details: species or system cynomolgus monkey.
Test [3] addresses T2, LAG-3 (Homo sapiens, UniProt P18627).
T2 construct: PBMCs were isolated from fresh whole blood samples from patients; endogenous in cells; host or cells: T cells in PBMCs from patient whole blood
T2 sequence (P18627 23-525): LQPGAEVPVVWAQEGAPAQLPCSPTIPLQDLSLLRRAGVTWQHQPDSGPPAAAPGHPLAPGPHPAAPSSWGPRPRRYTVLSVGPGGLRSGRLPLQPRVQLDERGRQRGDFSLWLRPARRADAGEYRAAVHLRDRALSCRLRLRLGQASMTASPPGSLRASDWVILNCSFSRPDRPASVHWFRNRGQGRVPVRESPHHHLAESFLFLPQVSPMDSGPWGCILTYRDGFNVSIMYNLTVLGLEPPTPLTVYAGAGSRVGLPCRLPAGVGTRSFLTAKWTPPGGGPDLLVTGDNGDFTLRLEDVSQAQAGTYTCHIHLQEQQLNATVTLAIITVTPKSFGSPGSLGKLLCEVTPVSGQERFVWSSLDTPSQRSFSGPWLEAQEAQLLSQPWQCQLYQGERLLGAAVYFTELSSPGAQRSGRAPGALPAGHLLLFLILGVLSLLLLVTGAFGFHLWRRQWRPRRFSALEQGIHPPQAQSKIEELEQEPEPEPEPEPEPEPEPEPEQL
Kind of test: Receptor occupancy on patient T cells (direct binding assay, flow cytometry). The note with it: patients, early time points, FIG. 10C. It is filed as in vivo. The text has this: The saturation binding aliquot was run in parallel as a control to assess the range of the assay.
In general terms: Flow cytometry measures light scatter and fluorescence of single cells or particles in a stream.

In test [4] the test system is primary human CD4+ T cells. As to the kind of experiment: Mixed lymphocyte reaction (MLR) assay, IL-2 secretion. The class given is cell-based. To be noted: 48 hours, antibody alone, FIG. 4. Here is the method: This example describes the ability of an exemplary anti-LAG-3 antibody agent to activate primary human T cells in vitro. […] In this MLR assay, primary human CD4+ T cells were mixed with monocyte-derived dendritic cells from a different donor. In these studies, dendritic cells and allogeneic CD4+ T cells were incubated in the presence of an exemplary anti-LAG-3 antibody agent or isotype control for 48 hours, and activation of T cells was determined by measuring the level of interleukin-2 (IL-2) secretion.

The target of test [5] is T3, LAG-3/MHC-II binding (Homo sapiens, UniProt P18627).
T3 construct: expressed in transfected cells; host or cells: Jurkat cells (NFAT reporter)
T3 sequence (P18627 23-525): T2 sequence (P18627 23-525)
Kind of test: LAG-3 reporter gene assay (LAG-3 Jurkat cells / MHC class II Raji cells, NFAT readout). The note with it: FIG. 3C. The class given is cell-based. The text has this: Specifically, this example uses Raji cells, which express high levels of endogenous MHC class II.

In test [6] the test system is human PBMCs. As to the kind of experiment: IL-2 release from SEB-stimulated human PBMCs. To be noted: 100 ng/mL SEB for 3 days, 5 donors, FIG. 5. It is filed as cell-based. Here is the method: Specifically human PBMCs (from 5 donors) were stimulated with 100 ng/mL SEB for 3 days and then IL-2 induction was assessed.
In test [7] the test system is PARP activity. The note with it: various cell lines, hydrogen peroxide, cited from earlier work.

Consider “TSR-033: anti-LAG-3 antibody agent comprising a heavy chain of SEQ ID NO: 21 and a light chain of SEQ ID NO: 22”, for which the Kassoc is on record as 1.3 × 10^5 (ms)^−1 in test [1] and 1.1 × 10^5 (ms)^−1 in test [2]. For the same compound, the Kdissoc was 0.00013 s⁻¹ in test [1] and 0.00026 s⁻¹ in test [2]. The results for the “receptor occupancy (RO)” value in test [3] (80 mg dose) and in test [3] (240 mg dose) were “approximately 50%” and “approaches saturation”, respectively. The IL-2 production result in test [4] and in test [6] was “dose-dependently increased IL-2 production” each time. Besides, the “disruption of binding of LAG-3 on Jurkat cells to MHC Class II expressing Raji cells” value in test [5] is on record as “potent antagonist”.
Consider `NC(=O)c1cccc2cn(-c3ccc([C@@H]4CCCNC4)cc3)nc12` [Niraparib, (3S)-3-[4-{7-(aminocarbonyl)-2H-indazol-2-yl}phenyl]piperidine], for which, in test [7] (read-out: inhibitory concentration at 90% of control (IC90)), the IC90 was about 50 nM. Further, in test [7], the IC50 was about 4 nM.

The IC50 is the concentration at which inhibition is half-maximal.
